# Experimental data reported in patent publication US6043258A (Eli Lilly and Company, priority 1998, dated 2000).
# How the values were obtained:
# [1] = molecular target: 5HT1D receptor subtype; test: 5HT1D receptor affinity; assay type: binding
# [2] = test system: D2 receptor subtype; test: pharmacological studies at D2 receptor subtype
# [3] = molecular target: muscarinic receptors (^3 H-oxotremorine-M binding); test: ^3 H-oxotremorine-M binding inhibition; settings: radioligand ^3 H-oxotremorine-M; read-out: inhibition constant (Ki), binding of ^3 H-oxotremorine-M
# [4] = test system: m4 receptors (CHO m4 cells); test: cAMP formation in CHO m4 cells treated with pertussis toxin; assay type: cell-based
# Description: Muscarinic agonists stimulate the formation of cAMP up to 10 fold in CHO m4 cells treated with pertussisi toxin and the pharmacology is consistent with the mediation by m4 receptors. Eckols K. Soc. Neurosci Abstr., 21:2040 (1995).
smiles,measurement,setting,value
"CCCCCCOc1nsnc1C1=CCCN(C)C1 [xanomeline, 3-(4-hexyloxy-1,2,5-thiadiazol-3-yl)-1,2,5,6-tetrahydro-1-methylpyridine]",Ki,[1],180 nM
same,activity at the D2 receptor subtype,[2],active at the D2 receptor subtype
same,Ki,[3],2 nM
same,stimulation of the formation of cAMP,[4],efficaciously and potently stimulated the formation of CAMP
